Measured values reported in ChEMBL document CHEMBL5214913, “Cysteine proteases as potential targets for anti-trypanosomatid drug discovery” (Bioorg Med Chem, 2021).
Where a SMILES comes first, the peptide text is derived from it. The star is where a group is joined. Cbz = O=C(OCc1ccccc1)*

Tests used:
Leishmania amazonensis = assay: Antileishmanial activity against Leishmania amazonensis promastigotes assessed as reduction in parasite survival measured after 48 hrs by Neubauer counting chamber based analysis; format: functional; details: read-out: LD50 (the source's name)
Trypanosoma cruzi [1] = assay: Antitrypanosomal activity against Trypanosoma cruzi Dm28c epimastigotes assessed as reduction in parasite viability incubated for 48 hrs by trypan blue staining based Neubauer counting chamber analysis; format: functional, organism-based
Trypanosoma cruzi [2] = assay: Antitrypanosomal activity against bloodstream Trypanosoma cruzi Y strain trypomastigote assessed as reduction in parasite viability incubated for 24 hrs by Neubauer chamber based analysis; format: functional, organism-based
Trypanosoma cruzi [3] = assay: Antiparasitic activity against Trypanosoma cruzi DM28c epimastigotes harboring TcMCA3 assessed reduction in parasite viability incubated for 72 hrs by MTT assay; format: functional, organism-based

Row | Compound | LC50 (Leishmania amazonensis) [µM] | IC50 (Trypanosoma cruzi [1]) [µM] | IC50 (Trypanosoma cruzi [2]) [µM] | IC50 (Trypanosoma cruzi [3]) [µM]
1 | CC(C)[C@H](NC(=O)OCc1ccccc1)C(=O)N[C@H](C=O)Cc1ccccc1 (Cbz-Val-Phe-aldehyde) | 23.3 | 31.7 | 20.4 | –
2 | C=CCc1cccc(/C=N/NC(=O)CN2CCN(Cc3ccccc3)CC2)c1O [PAC-1] | – | – | – | 14
